Test results taken from US4349562A, “Substituted 2-pyrrolidinones” (Hoffmann-La Roche Inc., priority 1978, dated 1982).
Where two headings read alike, the source gives them in different places.

What was measured:
Acute toxicity in mice = details: mouse, in vivo, po
Text: The acute toxicities of the compounds of formula I in mice are as follows: […]

untrained rats = assay: Posthypercapnic "avoidance" acquisition (shuttle box); type: in vivo; details: Rattus norvegicus, carbon dioxide 12 seconds, read-out: Minimum active dosage
Protocol: (§1) The ability of the compounds of formula I to counteract experimentally produced cerebral insufficiency in mammals was determined by means of test procedures which are described hereinafter:
POSTHYPERCAPNIC "AVOIDANCE" ACQUISITION
The test apparatus is a "shuttle box" having a 10 cm high hurdle in the middle and an electrifiable grid floor. A loudspeaker is mounted in the soundproof chamber. One group of untrained rats (120-150 g.) is injected with a test preparation and a second group is injected with a control preparation. One or three hours after administration, each group is placed in a pure carbon dioxide environment for 12 seconds. A third group of 10 rats is treated neither with the test preparation nor with carbon dioxide. Three minutes after treatment with carbon dioxide the rats of all three groups must learn an escape response and an avoidance response in the "shuttle box" in the following sequence: 10 seconds silence, 5 seconds noise ("avoidance response"), 15 seconds noise+foot-shock ("escape response"). The sequence is repeated six times. For each of the six experiments the reaction time (time until the rat jumps over the hurdle) of each rat is measured and the statistical significance of the differences between the mean group reaction times is calculated by means of the Mann-Whitney U-test.

[1] = tested on: squirrel monkeys (Saimiri sciureus); assay: Inhibition of haloperidol-induced "knock out" in a "continuous avoidance" test sequence; type: in vivo, squirrel monkey (Saimiri sciureus); details: in Primates, ip, before haloperidol 1.0 mg/kg p.o., delay in knock-out time, read-out: minimum active dosage
Protocol: as §1
INHIBITION OF HALOPERIDOL-INDUCED "KNOCK OUT" IN A "CONTINUOUS AVOIDANCE" TEST SEQUENCE
Male, untrained squirrel monkeys (Saimiri sciureus), each weighing 0.6 to 1.2 kg, are trained in a two-lever Skinner box in the following "continuous avoidance" sequence: "avoidance-shock", interval 40 seconds; "shock-shock", interval 20 seconds; foot-shock, maximum 5 seconds. Monkeys having a normal baseline performance receive haloperidol 1.0 mg/kg p.o. to determine the "knock-out" time (blocking of "avoidance and escape"). Monkeys having stable "knock-out" times are selected for the evaluation of test preparations as a potential cerebral insufficiency improver. The test preparations can be injected at various times before the treatment with haloperidol.
A dosage of a test preparation is considered to be active, if the administration before the treatment with haloperidol, produces a significant delay in the "knock-out" time. The test preparation is administered at different times prior to treatment with haloperidol.

untrained male rats = assay: "Passive avoidance" test with electroshock amnesia; type: in vivo; details: Rattus norvegicus, ip, 3 h, i.p., electric shock, retention time after three hours, read-out: minimum active dosage
Protocol: as §1
"PASSIVE AVOIDANCE" TEST WITH ELECTROSHOCK AMNESIA
The test apparatus is a Skinner box having an electrifiable grid floor with a grey quadrangular platform in one corner. Untrained male rats weighing 100-200 g are placed on the platform. When the rats climb down onto the grid floor they receive an electric shock. […] Immediately after acquisition of the passive avoidance response three groups of 20 rats each are formed. One group receives an electric shock between the ears and i.p. injection of the test preparation. The second group receives an electric shock between the ears and an i.p. injection of sodium chloride. The third group receives only an i.p. injection of sodium chloride. After three hours, each rat is placed on the platform once and the retention time, that is, the time the rat remains on the platform (maximum 60 seconds), is measured. The significant activity of the test preparation in comparison to the two control groups is calculated by means of the Rang Test.

Work on `COc1cccc(CN2CCCC2=O)c1` [m-Methoxybenzyl] yielded an LD50 (Acute toxicity in mice) of 1250 to 2500 mg/kg and a minimal effective dose (untrained rats; ip, after 3 hours) of 50 mg/kg.

`COc1ccccc1C(=O)N1CCCC1=O` [o-Methoxybenzoyl] gave an LD50 (Acute toxicity in mice) of 5000 mg/kg, a minimal effective dose (untrained rats; ip, after 1 hour) of 30 mg/kg and a minimal effective dose (untrained rats; po, after 1 hour) of 100 mg/kg.

In the case of `O=C1CCCN1Cc1ccc(F)cc1` [p-Fluorobenzyl], the LD50 (Acute toxicity in mice) is reported as 1000 to 2000 mg/kg, the minimal effective dose (untrained rats; ip, after 1 hour) is reported as 50 mg/kg and the minimal effective dose (untrained rats; po, after 1 hour) is reported as 300 mg/kg.

In the case of `COc1ccc(CN2CCCC2=O)cc1` [p-Methoxybenzyl, 1-(p-methoxybenzyl)-2-pyrrolidinone], the minimal effective dose [1] is reported as 1 mg/kg, the minimal effective dose (untrained male rats) is reported as 50 mg/kg and the LD50 (Acute toxicity in mice) is reported as 2000 to 4000 mg/kg. It also gave a minimal effective dose (untrained rats; ip, after 1 hour) of 10 mg/kg and a minimal effective dose (untrained rats; po, after 1 hour) of 50 mg/kg.
